Laboratory results as given in ChEMBL document CHEMBL6115007, “Synthesis and in vitro and in vivo evaluation of novel bivalent quinolines as antitumor agents via targeting autophagy in cervical cancer” (Eur J Med Chem, 2025).
The source made the active and inactive calls. The rule behind the calls is not given here.

Key:
[1] = tested on: BGC-823; assay: Antiproliferative activity against human BGC-823 cells assessed as reduction in cell optical density incubated for 48 hrs by MTT assay; format: functional, cell-based; settings: BGC-823, 48 h
[2] = tested on: HeLa; assay: Induction of apoptosis in human HeLa cells assessed as necrotic cells at 1.2 uM preincubated with Z-VAD-FMK for 1 hrs followed by compound addition and measured after 24 hrs by Annexin V-FITC/PI staining based flow cytometric analysis (reference value: 2.16 %); format: functional
[3] = tested on: Ca-Ski; assay: Induction of autophagolysosome formation in human Ca Ski cells transfected with mRFP-GFP-LC3 plasmid assessed as increase in ratio of mRFP to GFP puncta at 0.3 to 0.6 uM incubated for 24 hrs; format: functional, cell-based; settings: dose 0.3-0.6 µM
[4] = tested on: HeLa; assay: Effect on cleaved caspase 3 expression level in Bax deficient human HeLa cells at 0.6 to 1.2 uM incubated for 24 hrs by Western blot analysis; format: functional, cell-based; settings: dose 0.6-1.2 µM
[5] = tested on: HeLa; assay: Induction of apoptosis in human HeLa cells assessed as viable cells at 0.6 uM incubated for 24 hrs by Annexin V-FITC/PI staining based flow cytometric analysis (reference value: 96.2 %); format: functional; settings: read-out: Activity
[6] = tested on: Ca-Ski; assay: Induction of apoptosis in human Ca Ski cells assessed as viable cells at 1 uM incubated for 24 hrs by Annexin V-FITC/PI staining based flow cytometric analysis (reference value: 86.8 %); format: functional; settings: read-out: Activity
[7] = tested on: Ca-Ski; assay: Induction of apoptosis in human Ca Ski cells assessed as early apoptotic cells at 0.5 uM preincubated with Z-VAD-FMK for 1 hrs followed by compound addition and measured after 24 hrs by Annexin V-FITC/PI staining based flow cytometric analysis (reference value: 2.91 %); format: functional
[8] = tested on: HeLa; assay: Effect on ACSL4 protein expression level in human HeLa cells at 0.6 uM incubated for 24 hrs by Western blot analysis; format: functional, cell-based
[9] = Toxicity in female BALB/c mouse xenografted with human HeLa cells assessed as effect on RBC level at 4 to 8 mg/kg administered every four days and measured after 26 days; format: organism-based; settings: in vivo, 624 h, dose 4-8 mg/kg, time 26 day
[10] = tested on: SiHa; assay: Induction of morphological changes in human SiHa cells assessed as increase in appearance of round cells at 0.5 to 2 uM by microphotographic analysis; format: functional, cell-based; settings: dose 0.5-2 µM
[11] = tested on: Ca-Ski; assay: Induction of autophagy in human Ca Ski cells assessed as increase in p62 level at 0.25 to 1 microM incubated for 24 hrs by Western blot analysis; format: functional, cell-based; settings: dose 0.25-1 µM
[12] = tested on: Ca-Ski; assay: Inhibition of colony formation in ATG5 deficient human Ca Ski cells at 0.1 to 0.4 uM incubated for 24 hrs by crystal violet staining based analysis; format: functional, cell-based; settings: dose 0.1-0.4 µM
[13] = tested on: HeLa; assay: Inhibition of colony formation in ATG7 deficient human HeLa cells at 0.15 to 0.6 uM incubated for 24 hrs by crystal violet staining based analysis; format: functional, cell-based; settings: dose 0.15-0.6 µM
[14] = tested on: Ca-Ski; assay: Induction of autophagy in ATG5 deficient human Ca Ski cells assessed as increase in LC3-II expression at 0.5 to 1 uM incubated for 24 hrs by Western blot analysis; format: functional, cell-based; settings: dose 0.5-1 µM
[15] = tested on: HeLa; assay: Induction of ferroptosis in human HeLa cells assessed as increase in lipid ROS level by measuring rightward shift in fluorescence intensity at 0.6 uM measured after 24 hrs by C11-BODIPY-581/591 staining based flow cytometric analysis; format: functional, cell-based
[16] = tested on: HeLa; assay: Effect on caspase 3 expression level in human HeLa cells at 0.3 to 1.2 uM incubated for 24 hrs by Western blot analysis; format: functional, cell-based; settings: dose 0.3-1.2 µM
[17] = tested on: Ca-Ski; assay: Induction of apoptosis in human Ca Ski cells assessed as necrotic cells at 1 uM incubated for 24 hrs by Annexin V-FITC/PI staining based flow cytometric analysis (reference value: 3.15 %); format: functional
[18] = tested on: Ca-Ski; assay: Induction of morphological changes in human Ca Ski cells assessed as increase in inflated cell appearance at 0.5 to 2 uM by microphotographic analysis; format: functional, cell-based; settings: dose 0.5-2 µM
[19] = tested on: HCT-116; assay: Antiproliferative activity against human HCT-116 cells assessed as reduction in cell optical density incubated for 48 hrs by MTT assay; format: functional, cell-based; settings: HCT-116, 48 h
[20] = tested on: Ca-Ski; assay: Induction of autophagy in human Ca Ski cells transfected with mRFP-GFP-LC3 plasmid assessed as stable RFP fluorescence at 0.3 to 0.6 uM incubated for 24 hrs by DAPI staining based fluorescence confocal microscopic analysis; format: functional, cell-based; settings: dose 0.3-0.6 µM
[21] = tested on: C-33-A; assay: Antiproliferative activity against human C-33-A cells assessed as inhibition of cell growth at 0.3 to 1.2 uM by CCK8 assay; format: functional, cell-based; settings: dose 0.3-1.2 µM, time 6.0 day
[22] = tested on: C-33-A; assay: Induction of morphological changes in human C-33-A cells assessed as decrease in cell adherence to culture dish at 0.3 to 1.2 uM by microphotographic analysis; format: functional, cell-based; settings: dose 0.3-1.2 µM
[23] = tested on: Ca-Ski; assay: Effect on caspase 3 expression level in Bax deficient human Ca Ski cells at 0.5 to 1 uM incubated for 24 hrs by Western blot analysis; format: functional, cell-based; settings: dose 0.5-1 µM
[24] = tested on: HeLa; assay: Induction of morphological changes in human HeLa cells assessed as increase in appearance of round cells at 0.6 to 2.4 uM by microphotographic analysis; format: functional, cell-based; settings: dose 0.6-2.4 µM
[25] = tested on: Ca-Ski; assay: Induction of apoptosis in human Ca Ski cells assessed as viable cells at 0.5 uM preincubated with Z-VAD-FMK for 1 hrs followed by compound addition and measured after 24 hrs by Annexin V-FITC/PI staining based flow cytometric analysis (reference value: 90.2 %); format: functional; settings: read-out: Activity
[26] = tested on: Ca-Ski; assay: Induction of apoptosis in human Ca Ski cells assessed as late apoptotic cells at 0.5 uM incubated for 24 hrs by Annexin V-FITC/PI staining based flow cytometric analysis (reference value: 5.33 %); format: functional
[27] = tested on: Ca-Ski; assay: Effect on cleaved caspase 3 expression level in p53 deficient human Ca Ski cells at 0.5 to 1 uM incubated for 24 hrs by Western blot analysis; format: functional, cell-based; settings: dose 0.5-1 µM
[28] = tested on: HeLa; assay: Induction of apoptosis in human HeLa cells assessed as necrotic cells at 0.6 uM preincubated with Z-VAD-FMK for 1 hrs followed by compound addition and measured after 24 hrs by Annexin V-FITC/PI staining based flow cytometric analysis (reference value: 2.16 %); format: functional
[29] = tested on: HeLa; assay: Antitumor activity against human HeLa cells xenografted in female BALB/c mouse assessed as reduction in tumor weight at 4 mg/kg administered every four days and measured after 26 days relative to control; format: functional; design: scale not given: the % may be the effect or the level left; settings: time 26 day
[30] = tested on: Ca-Ski; assay: Antiproliferative activity against p53 deficient human Ca Ski cells assessed as inhibition of cell viability incubated for 24 hrs by CCK8 assay; format: functional, cell-based
[31] = tested on: HepG2; assay: Antiproliferative activity against human HepG2 cells assessed as reduction in cell optical density incubated for 48 hrs by MTT assay; format: functional, cell-based; settings: HepG2, 48 h
[32] = tested on: HeLa; assay: Effect on apoptosis pathway related gene expression in human HeLa cells at 1.2 uM incubated for 24 hrs by GSVA enrichment analysis; format: functional, cell-based
[33] = tested on: HeLa; assay: Induction of autophagy in human HeLa cells assessed as increase in LC3-II accumulation at 0.6 uM incubated for 3 to 48 hrs by Western blot analysis; format: functional, cell-based; settings: time 3-48 hrs

With `COc1cccc(Nc2ccnc3cc(OCCCCCOc4ccc5c(Nc6cccc(OC)c6)ccnc5c4)ccc23)c1` the IC50 [1] was 4060 nM, the Activity [2] was 1.49% and the Activity [3] was “Active”. The Activity [4] was “inactive”, the viability at 0.6 µM [5] was 94.3% and the viability at 1 µM [6] was 82%. The Activity [7] was 7.65%, the Activity [8] was “Moderate_effect” and the Activity [9] was “Non-toxic”. The Activity [10] was “Active”, the Activity [11] was “Active” and the inhibition [12] was “Minimal_effect”. For the same molecule, the inhibition [13] was “Minimal_effect”, the Activity [14] was “inactive” and the Activity [15] was “inactive”. For the same molecule, the Activity [16] was “inactive”, the Activity [17] was 2.98% and the Activity [18] was “Active”. The IC50 [19] was 260 nM, the Activity [20] was “Active” and the Activity [21] was “Time-dependent-effect”. For the same molecule, the Activity [22] was “Active”, the Activity [23] was “inactive” and the Activity [24] was “Active”. For the same molecule, the viability at 0.5 µM [25] was 73.7%, the Activity [26] was 5.88% and the Activity [27] was “inactive”. The Activity [28] was 1.01%, the Activity [29] was 46.27% and the IC50 [30] was 872 nM. The IC50 [31] was 31500 nM, the Activity [32] was “Minimal_effect” and the Activity [33] was “Active”.
